Measured values taken from article PMC11324046, “Second-generation piperazine derivatives as promising radiation countermeasures” (RSC Medicinal Chemistry, 2024).
Where two headings read alike, the source gives them in different places.

Assays:
[1] = WST-1 proliferation assay, MOLT-4; format: cell-based; conditions: human, MOLT-4 cells (acute lymphoblastic leukemia), vs 0.1% DMSO control = 100%, mean ± standard deviation
Experimental: (§1) A thorough analysis of antiproliferative activity was performed across various cell culture types representing different histotypes: leukemia (Jurkat, MOLT-4), lung adenocarcinoma (A549), colorectal adenocarcinoma (HT-29), pancreatic carcinoma (PANC-1), breast adenocarcinoma (MCF-7), osteosarcoma (SAOS-2), and one non-cancerous cell line (fetal lung fibroblasts MRC-5). The cell lines were exposed to the newly synthesized compounds at a concentration of 100 μM for 48 h in a single-dose treatment. Changes in cell proliferation compared to the vehicle 0.1% dimethyl sulfoxide (DMSO) control were determined using the WST-1 assay, which is based on mitochondrial dehydrogenase metabolic activities. […] The overall cytotoxic activity of each compound was expressed as growth percent (GP) – the mean of the proliferation of all cell lines treated with the same compound.
(§2) Selected human tumor and non-tumor cell lines Jurkat (acute T-cell leukemia), MOLT-4 (acute lymphoblastic leukemia), A549 (lung carcinoma), HT-29 (colorectal adenocarcinoma), PANC-1 (pancreas epithelioid carcinoma), MCF-7 (breast adenocarcinoma), SAOS-2 (osteosarcoma) and MRC-5 (normal lung fibroblasts) were purchased from either American Type Culture Collection (ATCC; VA, USA) or Sigma-Aldrich (St. Louis, MO, USA) and cultured according to the provider's culture method guidelines. All cell lines were maintained at 37 °C in a humidified 5% carbon dioxide and 95% air incubator. Cells in the maximum range of either 10 passages for the adherent cell lines (A549, HT-29, PANC-1, MCF-7, SAOS-2, and MRC-5), or 20 passages for suspension cell lines (Jurkat, MOLT-4,) and in an exponential growth phase were used for this study. Screening of the antiproliferative effect and growth percent calculation were conducted as follows: each cell line was seeded at previously established optimal density (1–50 × 10^3 cells per well) in a 96-well plate (TPP, Trasadingen, Switzerland) and cells were allowed to settle overnight. Cells were treated for 48 h with compounds at a final concentration of 100 μM. At the end of the cultivation period, the WST-1 proliferation assay (Roche, Basel, Switzerland) was performed according to the manufacturer's protocol. The absorbance was measured at 440 nm using a Tecan Spark multimode microplate reader (Tecan, Mannedorf, Switzerland). Each value is the mean of three independent experiments and represents the percentage of proliferation (100% cell proliferation for 0.1% DMSO mock-treated control cells). The GP value was calculated for each compound tested. GP represents the mean of the percentage proliferation decrease of all cell lines treated with the same compound.

[2] = WST-1 proliferation assay, MCF-7; format: cell-based; conditions: human, MCF-7 cells (breast adenocarcinoma), vs 0.1% DMSO control = 100%, mean ± standard deviation
Experimental: as §1, §2

[3] = test system: PBMCs; assay: in vitro; conditions: 48 h
Experimental: (§3) To represent the overall inhibitory activity of each compound, viability was calculated as the mean of at least three independent measurements. The purpose was to determine the optimal non-toxic concentration for subsequent use in radioprotection tests.
(§4) Whole blood from a healthy donor was diluted 1 : 1 with Dulbecco's phosphate buffered saline (Sigma-Aldrich, St. Louis, MO, USA). The diluted blood was slowly and carefully pipetted onto an equal volume of Histopaque®-1077 (Sigma-Aldrich, St. Louis, MO, USA). The entire process was carried out at room temperature. Subsequently, centrifugation was performed at 700 × g with the slowest acceleration and deceleration for 20 min at 20 °C. The resulting PBMCs ring was aspirated and centrifuged at 450 × g for 10 min at 20 °C with normal acceleration and deceleration. The cells were washed twice with RPMI 1640 medium with GlutaMAX (Gibco by Thermo Fisher Scientific, Waltham, MA, USA). After the second wash and centrifugation, the cells were diluted with cultivation medium RPMI 1640 with GlutaMAX supplemented with 20% inactivated fetal bovine serum (both Gibco by Thermo Fisher Scientific, Waltham, MA, USA) and 1% antibiotic solution of penicillin, 10 000 IU ml^−1 and streptomycin, 10 mg ml^−1 (Sigma-Aldrich, St. Louis, MO, USA). At the end, the cells were counted using Türk's solution.
(§5) PBMCs were plated into 96-well plates at a cell density of approximately 5 × 10^4 cells per well in a volume of 100 μl. Cells were treated with tested compounds in concentrations of 10, 20, 50, 100, 200, 500, and 1000 μM to determine the optimal non-toxic concentration for each. Cells were incubated for 48 h in a humidified atmosphere with 5% CO2 at 37 °C. 20 μl of MTS – CellTiter 96® AQueous One Solution Cell Proliferation Assay (Promega, Madison, WI, USA) was added to each well 4 h before spectrometric analysis. Cell viability was then determined by measuring absorbance at 490 nm using the Synergy H1 instrument by BioTek. The absorbance of the cell-free culture medium was used as a blank and subtracted from the absorbance readings obtained during the experiment. The viability of untreated control cells was set as 100%.

[4] = in vitro; conditions: male, human
Experimental: as §3, §4, §5

[5] = test system: MOLT-4 cells; assay: Annexin V/PI flow cytometry viability of irradiated MOLT-4 cells; format: cell-based, human; conditions: Homo sapiens, 2 h pretreatment, 2 Gy, 24 h; for viability at 200 µM: representative histogram Fig. 6A (2 Gy alone 27 %)
Experimental: Consequently, we investigated whether the pre-application of these substances can augment the survival of MOLT-4 cells after irradiation exposure. The radioprotective investigation utilized a leukemia MOLT-4 cell model of hematopoietic origin with flow cytometric quantification of cell viability via annexin V/propidium iodide staining.
In the following step, at 24 h after irradiation, MOLT-4 cell viability and cell death were determined by flow cytometry using an Alexa Fluor® 488 annexin V/Dead Cell Apoptosis kit (Life Technologies, Grand Island, NY, USA) following the manufacturer's instructions. The Alexa Fluor®488 annexin V/Dead Cell Apoptosis kit employs the property of Alexa Fluor®488 conjugated to annexin V to bind to phosphatidylserine in the presence of Ca^2+; and the ability of propidium iodide to enter cells with damaged cell membranes and bind to DNA. For each sample, a minimum of 20 000 events were acquired using a CytoFLEX LX flow cytometer (Beckman Coulter, Miami, FL, USA). List mode data were analyzed using Kaluza Analysis 2.1 software (Beckman Coulter, Miami, FL, USA).

[6] = WST-1 proliferation assay, SAOS-2; format: cell-based; conditions: human, SAOS-2 cells (osteosarcoma), vs 0.1% DMSO control = 100%, mean ± standard deviation
Experimental: as §1, §2

[7] = MOLT-4, representative histogram Fig. 5A (2 Gy alone 26 %), read-out: Viable (annexin V/PI negative) MOLT-4 cells, compound + 2 Gy
[8] = MOLT-4, read-out: Viable (annexin V/PI negative) MOLT-4 cells, compound + 2 Gy
[9] = peripheral blood mononuclear cells (PBMCs)

Row | SMILES | viability at 48 h, 100 µM [1] [%] | viability at 48 h, 100 µM [2] [%] | Optimal non-toxic concentration (PBMC viability not below 100% at 0.05 significance level and higher than 90%) ([3]; male, human) [µM] | viability at 48 h, 10 µM [4] [%] | viability at 48 h, 20 µM [4] [%] | viability at 48 h, 50 µM [4] [%] | viability at 48 h, 100 µM [4] [%] | viability at 48 h, 200 µM [4] [%] | viability at 48 h, 500 µM [4] [%] | viability at 48 h, 1000 µM [4] [%] | viability at 100 µM [5, 7] [%] | viability at 200 µM [5, 8] [%] | viability at 48 h, 100 µM [6] [%] | further results
1 | O=[N+]([O-])c1cc(OCC(O)CN2CCN(CCO)CC2)ccc1Cl (centres unmarked) [Compound 5, 1-(4-(2-Hydroxyethyl)piperazin-1-yl)-3-(4-chloro-3-nitrophenoxy)propan-2-ol] | 84 ± 8 | 104 ± 11 | 200 | 121 ± 25 | 99 ± 8 | 111 ± 7 | 102 ± 9 | 107 ± 5 | 79 ± 3 | 44 ± 11 | 32 | 30 | 89 ± 3 | 
2 | O=[N+]([O-])c1ccc(OCC(O)CN2CCN(CCO)CC2)c(F)c1 (centres unmarked) [Compound 3, 1-(4-(2-Hydroxyethyl)piperazin-1-yl)-3-(2-fluoro-4-nitrophenoxy)propan-2-ol] | 84 ± 11 | 91 ± 12 | 500 | 98 ± 5 | 95 ± 14 | 90 ± 9 | 92 ± 6 | 92 ± 5 | 92 ± 9 | 81 ± 11 | 31 | 35 | 92 ± 14 | 
3 | COc1cc([N+](=O)[O-])ccc1OCC(O)CN1CCN(CCO)CC1 (centres unmarked) [Compound 1, 1-(4-(2-Hydroxyethyl)piperazin-1-yl)-3-(2-methoxy-4-nitrophenoxy)propan-2-ol] | 92 ± 8 | 100 ± 9 | 500 | 114 ± 14 | 110 ± 11 | 111 ± 15 | 101 ± 17 | 102 ± 21 | 97 ± 22 | 60 ± 10 | 35 | 36 | 101 ± 16 | 
4 | NCCCNCCSP(=O)(O)O [WR2721, amifostine, reference compound] | 71 ± 21 | 7 ± 2 |  |  |  |  |  |  |  |  | 28 | 22 | 9 ± 3 | Change of PBMC viability (in words) ([3]; 20 μM): significant decrease; Optimal non-toxic concentration (PBMC viability not below 100% at 0.05 significance level and higher than 90%) ([3]; PBMCs, MTS): 10 µM; viability at 48 h, 10 µM [4, 9]: 93 ± 17%; viability at 48 h, 20 µM [4, 9]: 75 ± 30%; viability at 48 h, 50 µM [4, 9]: 37 ± 9%; viability at 48 h, 100 µM [4, 9]: 33 ± 12%; viability at 48 h, 200 µM [4, 9]: 35 ± 17%; viability at 48 h, 500 µM [4, 9]: 37 ± 20%; viability at 100 µM ([5]; MOLT-4, light or radiation study, annexin V/PI negative cells, read-out: Viability rate of MOLT-4 cells relative to 2 Gy irradiation alone (100%)): 106%
